Experimental data published in patent publication US20110046039A1, “POST-EXPOSURE PROPHYLAXIS AND TREATMENT OF INFECTIONS” (priority 2007, published 2011).
Where a SMILES comes first, the peptide text is derived from it. The star is where a group is joined. Cbz = O=C(OCc1ccccc1)*; CH2F = FC*

Assays:
[1] = test system: anthrax spores; parameters: species or system DBA/2 mice; conditions: mouse, in vivo
[2] = test system: cultured macrophages; conditions: cited from earlier work
[3] = test system: livers of anthrax-challenged mice; conditions: mouse, in vivo; cited from earlier work

CNC(=O)[C@H]1O[C@@H](n2cnc3c(NCc4cccc(I)c4)nc(Cl)nc32)[C@H](O)[C@@H]1O [Cl-IB-MECA, 2-chloro-N^6-(3-iodobenzyl)-adenosine-5′-N-methyluronamide]
protection of exposed animals [1]: 40% | protection of mice against post-exposure anthrax [1]: protect mice against post-exposure anthrax

COC(=O)C[C@H](NC(=O)[C@H](C)NC(=O)[C@@H](NC(=O)OCc1ccccc1)C(C)C)C(=O)CF [z-VAD, z-Val-Ala-Asp(OMe)-fluoromethylketone] (Cbz-Val-Ala-Asp(OMe)-CH2F)
anti-apoptotic effect [2]: protective anti-apoptopic effect | anti-apoptotic effect [3]: protective anti-apoptopic effect

O=C(O)c1cn(C2CC2)c2cc(N3CCNCC3)c(F)cc2c1=O [ciprofloxacin]
animals protected ([1]; ip, 50 mg/kg): 30%

CNC(=O)[C@H]1O[C@@H](n2cnc3c(NCc4cccc(I)c4)ncnc32)[C@H](O)[C@@H]1O [IB-MECA, N^6-(3-iodobenzyl)-adenosine-5′-N-methyluronamide]
protection of mice against post-exposure anthrax [1]: protect mice against post-exposure anthrax
